Activity calls are given as the source filed them. The rule behind the calls is not given here.
What was measured:
[1] = target: T1, Estrogen receptor (Homo sapiens) (UniProt P03372); test: Activity at human estrogen receptor expressed in transgenic Arabidopsis plant at >100 uM by pER8-GFP reporter assay
T1 sequence (whole entry): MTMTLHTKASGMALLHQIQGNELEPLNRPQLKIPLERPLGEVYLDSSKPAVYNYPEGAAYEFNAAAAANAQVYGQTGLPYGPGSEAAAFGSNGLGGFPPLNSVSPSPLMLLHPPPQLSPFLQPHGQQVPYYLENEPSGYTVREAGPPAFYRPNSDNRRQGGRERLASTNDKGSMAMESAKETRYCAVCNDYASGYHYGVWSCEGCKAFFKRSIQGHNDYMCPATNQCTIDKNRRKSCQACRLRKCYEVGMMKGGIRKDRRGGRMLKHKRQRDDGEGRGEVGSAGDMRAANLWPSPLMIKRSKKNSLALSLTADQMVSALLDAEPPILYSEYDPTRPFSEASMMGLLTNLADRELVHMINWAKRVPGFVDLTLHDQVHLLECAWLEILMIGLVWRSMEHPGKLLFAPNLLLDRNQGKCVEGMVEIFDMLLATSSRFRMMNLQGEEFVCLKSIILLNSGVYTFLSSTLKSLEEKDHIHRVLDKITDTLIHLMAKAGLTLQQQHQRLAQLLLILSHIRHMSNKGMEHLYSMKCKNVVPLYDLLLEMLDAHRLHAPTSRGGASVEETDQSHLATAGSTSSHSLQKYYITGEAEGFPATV

[2] = target: T1, Estrogen receptor (Homo sapiens); test: Activity at human estrogen receptor expressed in transgenic Arabidopsis plant at >100 ug/mL by pER8-GFP reporter assay
[3] = target: T1, Estrogen receptor (Homo sapiens); test: Activity at human estrogen receptor expressed in transgenic Arabidopsis plant at >10 uM by pER8-GFP reporter assay

SMILES: O=C1C=CC(O)(c2cc(=O)c3c(O)cc(O)cc3o2)C=C1
- Activity [1]: Active

SMILES: O=c1c(-c2ccc(O)cc2)coc2c([C@@H]3O[C@H](CO)[C@@H](O)[C@H](O)[C@H]3O)c(O)ccc12
- Activity [2]: Active

SMILES: C[C@]12CC[C@H]3[C@@H](CCC4=CC(=O)CC[C@@]43C)[C@@H]1CC[C@@H]2O
- Activity [3]: Active
